From PMC4096046 (Bioorganic & medicinal chemistry letters, 2014)
Values after ≈ are worked out from the molar mass of the structure shown.

Tests used:
H37Rv Mtb = test: MIC against replicating H37Rv Mtb in GAS and 7H12 media; format: cell-based, Mycobacterium tuberculosis; conditions: for MIC: Mycobacterium tuberculosis, H37RV, read-out: MIC mean +/- against replicating Mtb in medium: GAS (μg/mL), GAS medium, H37Rv, recalculated from μM
Mycobacterium kansasii = test: MIC against non-tubercular mycobacteria: M. kansasii; format: cell-based
Mycobacterium bovis BCG = test: MIC against non-tubercular mycobacteria: M. bovis BCG; format: cell-based; conditions: Mycobacterium tuberculosis variant bovis BCG
Mycobacterium avium = test: MIC against non-tubercular mycobacteria: M. avium; format: cell-based

SMILES | MIC (H37Rv Mtb) [µg/mL] | other results
Cc1ccn2c(C(=O)NCc3ccccc3)c(C)nc2c1 [Compound 1, N-benzyl-2,7-dimethyl-imidazo[1,2-a]pyridine-3-carboxamide] | – | times more potent than 12 (H37Rv Mtb; MIC's of 0.2 and 70 μM): 350 times
Cc1ccc2nc(C)c(C(=O)NCc3ccccc3)n2n1 [Compound 7, N-benzyl-2,6-dimethylimidazo[1,2-b]pyridazine-3-carboxamide] | 17.9 ± 0.5 (≈ 63.9 µM) | –
Cc1ccc2c(C(=O)NCc3ccccc3)n[nH]c2c1 [Compound 9, N-benzyl-6-methyl-1H-indazole-3-carboxamide] | 10.8 ± 0.9 (≈ 40.7 µM) | –
Cc1ccn2c(C(=O)NCc3ccccc3)nnc2c1 [Compound 10, N-benzyl-7-methyl-[1,2,4]triazolo[4,3-a]pyridine-3-carboxamide] | 27 ± 1.6 (≈ 101 µM) | negative effect on potency relative to compound 2 (H37Rv Mtb; GAS medium, MIC of 0.1 and 101 μM): 1000 x
Cc1cnc2nc(C)c(C(=O)NCc3ccccc3)n2c1 [Compound 6, N-benzyl-2,6-dimethylimidazo[1,2-a]pyrimidine-3-carboxamide] | 0.36 ± 0.06 (≈ 1.28 µM) | MIC (Mycobacterium kansasii): 19 µM (≈ 5.33 µg/mL); MIC (Mycobacterium bovis BCG): 8 µM (≈ 2.24 µg/mL)
Cc1cc(C)n2nc(C(=O)NCc3ccccc3)nc2n1 [Compound 11, N-benzyl-5,7-dimethyl-[1,2,4]triazolo[1,5-a]pyrimidine-2-carboxamide] | 35.4 ± 0.8 (≈ 126 µM) | –
Cc1ccc2c(C(=O)NCc3ccccc3)c(C)[nH]c2c1 [Compound 8, N-Benzyl-2,6-dimethyl-1H-indole-3-carboxamide] | 12.2 ± 0.3 (≈ 43.8 µM) | –
Cc1ccc2nc(C)c(C(=O)NCc3ccccc3)n2c1 [Compound 2] | 0.031 ± 0.002 (≈ 0.111 µM) | MIC (Mycobacterium avium): 16 µM (≈ 4.47 µg/mL); MIC (Mycobacterium bovis BCG): 1 µM (≈ 0.279 µg/mL)
Cc1ccn2c(C)c(C(=O)NCc3ccccc3)nc2c1 [Compound 12, N-benzyl-3,7-dimethylimidazo[1,2-a]pyridine-2-carboxamide] | 19.6 ± 2.5 (≈ 70.2 µM) | –
